According to US10648917B2, “Luminescent compositions and applications thereof” (THE PENN STATE RESEARCH FOUNDATION, priority 2015, dated 2020):
Like-named read-outs stand apart in the source and are kept apart here. Each block holds one compound with its values, some of them ahead of it.

Experiments:
[1] = system: NIH 3T3 mouse fibroblasts; assay: In vitro cytotoxicity, CCK-8 cell viability assay; assay type: cell-based; conditions: for cell viability: 24 h
Procedure: NIH 3T3 mouse fibroblasts (ATCC) were used as model cells for in vitro cytotoxicity evaluations. The cells were cultured in Dulbecco's modified eagle's medium (DMEM), which had been supplemented with 10% fetal bovine serum (FBS) and 1% penicillin streptomycin. The culture flasks were kept in an incubator maintained at 37° C., 5% CO2, and 95% relative humidity. For a typical cytotoxicity study, 3T3 cells were seeded with a density of 5×10^4 cells/ml. […] of cell suspension in DMEM was added to each well in a 96-well plate and then incubated for 24 h. The culture medium was changed to 100 μL of DMEM containing the CFDs with various concentrations and followed by another 24 h incubator. A CCK-8 cell viability assay was used for a quantitative assessment of the viable cells according to the manufacturer's protocol. Viability of cells was normalized to the control of tissue culture plates (n=5).
The in vitro toxicity of CFDs was evaluated by incubating them with NIH 3T3 mouse fibroblasts at different concentrations. […] Therefore, CFDs are generally biocompatible fluorescent compounds that can be used at a high dosage. […] The red fluorescence was relatively weak since CA-Cys has relatively weak red fluorescence emission.

[2] = Fluorescence spectra, absorbance and quantum yield (spectrofluorometer, integration sphere); assay type: physicochemical; conditions: for Shifting (emission shifting with excitation wavelength): CFD dyes; for Φ (quantum yield) / λem (maximum emission wavelength) / λex (maximum excitation wavelength) / ϵ (extinction coefficiency): Table III
Procedure: Fluorescence spectra were recorded by a Horiba FluoroMax-4 spectrofluorometer. All polymer and small molecule samples were measured at a concentration of 2% w/w in 1,4-dioxane or DI water and a slit size of 1 nm by 1 nm unless otherwise specified. Quantum yields were also determined on the same spectrofluorometer by using a Quantum-φ integration sphere at the same concentration and slit size with the blank solvent as the reference. ^1H-NMR, ^13C-NMR were performed on a JNM ECS 300 spectrometer using DMSO-d6 or D2O as solvents. Attenuated total reflection Fourier transform infrared (ATR-FTIR) spectra were collected with a Bruker V70 spectrometer using BPLP films. A Shimadzu HPLC-MS system with a Phenomenex Kinetex 2.6u XB-C18 100 mm×2.9 mm column, a SPD M20A PDA detector and a RF-20AXS fluorescence detector (Ex. 360 nm and Em. 430 nm) was used to characterize the structures of fluorophores as well. The mobile phase was a gradient of DI water and acetonitrile with 0-6 min 2% acetonitrile, 6-12 min 2%-30% acetonitrile, and 12-15 min 2% acetonitrile. The flow rate was 0.15 ml/min. Electrospray ionization mass spectroscopy (ESI-MS) was performed with a positive voltage of 4.5 kV and negative mode voltage −4.0 kV and a CDL temperature of 200° C. The analysis of the degradation products of BPLPs were conducted by immersing BPLPs in 1M K2CO3 solution at 37° C. for 24 hours. After degradation, the solutions were neutralized by 1N HCl solution to pH 7 and characterized by HPLC-MS as described above.
Fluorescence spectra were recorded by a Horiba FluoroMax-4 spectrofluorometer. All samples were measured at a concentration corresponding to an optical density of 0.1 in water and a slit size of 1 nm by 1 nm unless specified. Quantum yields were also determined on same spectrofluorometer by using a Quantum-φ integration sphere at samples' maximum excitation wavelength and at an increment of 0.3 nm. Photostability studies were done by continuously exciting samples at their maximum excitation wavelength and monitoring at the maximum emission wavelength.
Fluorescence spectra were recorded on a Horiba FluoroMax-4 spectrofluorometer (Horiba Scientific, Edison N.J.). All polymer and samples were characterized at a concentration of 2 wt % in 1,4-dioxane and a slit size of 1 nm by 1 nm unless otherwise specified. The fluorescence properties of small molecule dyes were also measure in 2 wt % DI water solutions at same conditions as polymer solutions. BPLPs were also degraded in 1M K2CO3 solution at 37° C. for 24 hours and then neutralized with 1N HCl solution to pH7. The resulting degradation solutions were subject to further PL characterizations. Quantum yields were also determined on the same spectrofluorometer by using a Quantum-φ integration sphere (Horiba Scientific, Edison N.J.) at the same concentration and slit size with the blank solvent as the reference. Photostability of small molecules and polymers were determined by monitoring the emission intensity decay at their max. Excitation and emission wavelengths over 3 hours of continuous lumination in the spectrofluorometer.
Absorbance Spectra were recorded on Tecan Infinite M200 Pro UV-vis spectroscopy, and fluorescence spectra were recorded on Horiba FluoroMax-4 fluorospectroscopy at concentrations below 0.1 O.D. unless otherwise indicated. Quantum Yields were measured on the Quantum φ Integrating Sphere accessory to the FluoroMax-4, while lifetime measurements were determined through the Time-Correlation Single Photon Counting (TCSPC) accessory to the FluroMax-4. TCSPC was utilized in conjunction with NanoLED pulsed diode light source with peak excitation wavelength at 352 nm and at 10,000 counts peak preset. Emission was collected at the fluorescence λmax, unless otherwise indicated. For all pH-dependence experiments, sample pH was adjusted with sulfuric acid or sodium hydroxide. For all chloride-dependent quenching experiments, magnesium chloride hexahydrate (Sigma Aldrich) was used.

[3] = 2500 μg/ml, vs control (p<0.01)
[4] = Dianion protolytic state (physiological pH)

Shifting (emission shifting with excitation wavelength) [2]: Yes
Φ (quantum yield) [2]: 21.2%
λem (maximum emission wavelength) [2]: 430 nm
λex (maximum excitation wavelength) [2]: 361 nm
ϵ (extinction coefficiency) [2]: 79 M⁻¹ cm⁻¹
band-shift effect ([2]; in acetone (ε=20.7)): moderate
band-shift effect ([2]; in dichloromethane (ε=8.93)): minimal
band-shift effect ([2]; in water (ε=80.1)): strongest
Max. Em. Wavelength ([2]; representative CFDs, Table I): 430 nm
Max. Ex. Wavelength ([2]; representative CFDs, Table I): 361 nm
Quantum Yield ([2]; representative CFDs, Table I): 21.2%
SMILES: CC(C(=O)O)N1C(=O)C=C(C(=O)O)CC1=O (stereo not drawn) [CA-Ala]
cell viability ([1]; 1000 μg/ml, vs control): no significant decrease in cell viability
cell viability [1, 3]: significant decrease

Quantum Yield [2]: ≤ 81%
extinction coefficient [2]: 8640 M⁻¹ cm⁻¹
Abs. Max ([2]; Anion protolytic state): 354 nm
Em. max ([2]; Anion protolytic state): 440 nm
Exc. max ([2]; Anion protolytic state): 360 nm
Stokes shift ([2]; Anion protolytic state): 80 nm
Φ ([2]; Anion protolytic state): 67.24%
ε ([2]; Anion protolytic state): 7454 M⁻¹ cm⁻¹
Abs. Max ([2]; Dianion protolytic state): 346 nm
Em. max ([2]; Dianion protolytic state): 418 nm
Exc. max ([2]; Dianion protolytic state): 350 nm
Stokes shift [2, 4]: 67 nm
Φ [2, 4]: 81.20%
ε [2, 4]: ~8640 M⁻¹ cm⁻¹
Abs. Max ([2]; Neutral protolytic state): 362 nm
Em. max ([2]; Neutral protolytic state): 445 nm
Exc. max ([2]; Neutral protolytic state): 366 nm
Stokes shift ([2]; Neutral protolytic state): 80 nm
Φ ([2]; Neutral protolytic state): Quenched
ε ([2]; Neutral protolytic state): ~8300 M⁻¹ cm⁻¹
Φ (quantum yield) [2]: 81.4%
λem (maximum emission wavelength) [2]: 445 nm
λex (maximum excitation wavelength) [2]: 364 nm
ϵ (extinction coefficiency) [2]: 8640 M⁻¹ cm⁻¹
quenching in organic solvents compared to water ([2]; dioxane, acetone, ethanol, isopropanol, DMSO): minimal quenching
Max. Em. Wavelength ([2]; representative CFDs, Table I): 445 nm
Max. Ex. Wavelength ([2]; representative CFDs, Table I): 364 nm
Quantum Yield ([2]; representative CFDs, Table I): 81.4%
SMILES: O=C(O)c1cc2n(c(=O)c1)C(C(=O)O)CS2 (stereo not drawn) [CA-Cys]
cell viability ([1]; 1000 μg/ml, vs control): no significant decrease in cell viability
cell viability [1, 3]: significant decrease
dosage with in-vitro cytocompatibility ([1]; 3T3 cell line): up to 10.3 mM
Shifting (emission shifting with excitation wavelength) [2]: no fluorescence band shifting was observed and No
